In ChEMBL document CHEMBL1122604, “(E)-2-(3,4-dimethoxyphenyl)-3-fluoroallylamine: a selective, enzyme-activated inhibitor of type B monoamine oxidase” (J Med Chem, 1984):
Several values for one entry are separate records, joined by “and”; a condition that tells them apart may be missing. Equal values may be shown once.

How the values were obtained:
[1] = target: T1, Amine oxidase [flavin-containing] A (Rattus norvegicus, UniProt P21396); assay: Inhibition of monoamine oxidase (MAO) type A by administering the compound perorally at a dose level of 0.5 mg/(kg day).; type: functional; conditions: po
T1 sequence (P21396 whole entry): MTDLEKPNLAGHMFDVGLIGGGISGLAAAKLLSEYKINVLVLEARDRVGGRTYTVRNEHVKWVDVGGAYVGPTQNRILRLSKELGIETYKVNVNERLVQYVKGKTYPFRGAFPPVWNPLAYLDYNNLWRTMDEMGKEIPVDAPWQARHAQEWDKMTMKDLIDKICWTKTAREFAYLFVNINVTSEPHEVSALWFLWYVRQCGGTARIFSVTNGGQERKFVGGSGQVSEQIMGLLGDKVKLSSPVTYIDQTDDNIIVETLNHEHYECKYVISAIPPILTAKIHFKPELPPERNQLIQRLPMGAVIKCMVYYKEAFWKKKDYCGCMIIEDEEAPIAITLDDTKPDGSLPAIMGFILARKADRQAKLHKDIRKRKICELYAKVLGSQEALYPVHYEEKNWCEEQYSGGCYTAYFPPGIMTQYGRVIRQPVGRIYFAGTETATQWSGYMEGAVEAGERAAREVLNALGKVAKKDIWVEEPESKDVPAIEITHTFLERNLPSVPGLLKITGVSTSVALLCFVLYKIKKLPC

[2] = The minimum half-life at saturation concentration of 130 uM at 10 degrees Centigrade.; type: ADME; conditions: read-out: T50
[3] = The minimum half-life at apparent dissociation concentration of 40 uM at 10 degrees Centigrade.; type: ADME
[4] = target: T1, Amine oxidase [flavin-containing] A; assay: Inhibition of monoamine oxidase (MAO) type A by administering the compound perorally at a dose level of 2.5 mg/(kg day).; type: functional; conditions: po
Rattus norvegicus = organism: Rattus norvegicus; assay: Compound was evaluated for apparent kinetic dissociation (Ki) using Kitz and Wilson method.; type: functional, organism-based
[5] = target: T2, Amine oxidase [flavin-containing] B (Rattus norvegicus, UniProt P19643); assay: Inhibition of monoamine oxidase (MAO) type B by administering the compound perorally at a dose level of 0.5 mg/(kg day).; type: functional; conditions: po
T2 sequence (P19643 whole entry): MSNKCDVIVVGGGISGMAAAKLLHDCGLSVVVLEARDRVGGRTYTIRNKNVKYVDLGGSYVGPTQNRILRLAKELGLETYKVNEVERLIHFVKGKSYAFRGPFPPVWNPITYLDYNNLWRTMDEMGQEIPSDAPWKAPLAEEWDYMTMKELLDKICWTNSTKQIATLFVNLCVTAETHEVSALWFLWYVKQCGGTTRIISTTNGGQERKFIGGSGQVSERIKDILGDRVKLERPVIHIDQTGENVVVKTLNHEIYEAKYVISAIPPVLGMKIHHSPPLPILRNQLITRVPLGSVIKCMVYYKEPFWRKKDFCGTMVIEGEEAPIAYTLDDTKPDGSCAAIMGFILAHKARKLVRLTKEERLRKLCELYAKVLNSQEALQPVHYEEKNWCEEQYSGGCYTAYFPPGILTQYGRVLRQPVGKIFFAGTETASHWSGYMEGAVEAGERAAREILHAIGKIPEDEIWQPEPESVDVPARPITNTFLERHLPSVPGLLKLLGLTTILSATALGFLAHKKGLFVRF

Inhibition [1]: < 15% | half-life at 130 µM [2]: 14.5 min | T50 [3]: 1.7 min | Inhibition [4]: 50% | Ki (Rattus norvegicus): 40 µM and 130 µM | Inhibition [5]: > 85%
SMILES: COc1ccc(/C(=C\F)CN)cc1OC.Cl
